Numbered stars: 1 amine (or outer) side, 2 acyl side, 3 side chain; on linkers, the order of the positions; unused ones are H or OH. Square brackets hold non-standard residues; d marks the D form. Side chains are listed from the residue outwards. Peptide text beside a SMILES is read from it. * marks the point of attachment. γGlu = O=C(O)[C@H](CCC(=O)[*:2])N[*:1]; Stearoyl = CCCCCCCCCCCCCCCCCC(=O)*; Palmitoyl = CCCCCCCCCCCCCCCC(=O)*; AEEA = NCCOCCOCC(=O)O; Aib = CC(C)(N)C(=O)O
Experiments:
[1] = biological target: T1, human glucagon receptor (hGlucagon R) (Homo sapiens, UniProt P47871); assay: cAMP response (HTRF) of HEK-293 cells stably expressing human glucagon receptor; assay type: cell-based; conditions: Table 8; cAMP formation
T1 construct: expressed in transfected cells; host or cells: HEK-293
T1 sequence (P47871 26-477): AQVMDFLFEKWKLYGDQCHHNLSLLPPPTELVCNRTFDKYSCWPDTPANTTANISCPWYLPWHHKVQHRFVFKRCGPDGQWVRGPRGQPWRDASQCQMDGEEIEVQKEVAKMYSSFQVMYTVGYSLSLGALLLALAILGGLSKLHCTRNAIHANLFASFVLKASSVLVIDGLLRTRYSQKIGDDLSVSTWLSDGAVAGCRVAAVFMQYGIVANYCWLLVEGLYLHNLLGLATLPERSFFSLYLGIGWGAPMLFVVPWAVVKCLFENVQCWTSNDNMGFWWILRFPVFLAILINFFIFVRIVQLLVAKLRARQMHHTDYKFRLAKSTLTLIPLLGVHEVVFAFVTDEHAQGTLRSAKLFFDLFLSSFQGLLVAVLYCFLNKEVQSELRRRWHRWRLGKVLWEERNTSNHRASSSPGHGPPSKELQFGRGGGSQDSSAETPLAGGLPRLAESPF
Description: (§1) cAMP content of cells was determined using a kit from Cisbio Corp. (cat. no. 62AM4PEJ) based on HTRF (Homogenous Time Resolved Fluorescence). For preparation, cells were split into T175 culture flasks and grown overnight to near confluency in medium (DMEM/10% FBS). Medium was then removed and cells washed with PBS lacking calcium and magnesium, followed by proteinase treatment with accutase (Sigma-Aldrich cat. no. A6964). Detached cells were washed and resuspended in assay buffer (1×HBSS; 20 mM HEPES, 0.1% BSA, 2 mM IBMX) and cellular density determined. They were then diluted to 400000 cells/ml and 25 μl-aliquots dispensed into the wells of 96-well plates. For measurement, 25 μl of test compound in assay buffer was added to the wells, followed by incubation for 30 minutes at room temperature.
(§2) Potencies of peptidic compounds at the GLP-1, glucagon and GIP receptors were determined by exposing cells expressing human glucagon receptor (hGlucagon R), human GIP receptor (hGIP-R) or human GLP-1 receptor (hGLP-1 R) to the listed compounds at increasing concentrations and measuring the formed cAMP as described in Methods.

[2] = Chemical stability assessment (UPLC-UV, relative purity loss); assay type: physicochemical; conditions: 1 mg/ml, 25 mM acetate buffer pH 4.5 with m-cresol (buffer system A)
Procedure, shortened: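 Peptide at 1 mg/mL (purity-corrected) in 25 mM acetate pH 4.5 with methionine, m-cresol and glycerol, sterile-filtered, stored 28 days at 40° C. Purity measured by UPLC-UV as peptide peak area fraction at start and after storage; value is relative percent purity loss.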

[3] = Solubility assessment (UPLC-UV); assay type: physicochemical; conditions: acetate buffer pH 4.5, 2.7 mg/ml m-cresol (buffer system A), target 10 mg/ml
Procedure, shortened: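 Peptides at 10 mg/mL (purity-corrected, by UPLC/MS) in 100 mM acetate buffer pH 4.5 with 2.7 mg/ml m-Cresol, gently agitated 1 hour, then centrifuged 15 min at 2500 RCF. Supernatant, diluted 1:10, quantified by UPLC-UV peak area against a reference peptide standard curve, extinction-coefficient corrected.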

[4] = Thioflavin T (ThT) assay for physical stability (fibrillation); assay type: physicochemical; conditions: 3 mg/ml, 100 mM acetate pH 4.5 with m-cresol, shaking at 37° C.
Procedure, shortened: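 Peptide at 3 mg/ml with 100 μM ThT in 100 mM acetate pH 4.5 with m-cresol, stressed at 37° C by cycles of 10 s shaking at 960 rpm and 50 s rest. Fluorescence read every 20 minutes, eight replicates; lag time in hours.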

[5] = biological target: T2, human GLP-1 receptor (hGLP-1 R) (Homo sapiens, UniProt P43220); assay: cAMP response (HTRF) of HEK-293 cells stably expressing human GLP-1 receptor; assay type: cell-based; conditions: Table 8; cAMP formation
T2 construct: expressed in transfected cells; host or cells: HEK-293
T2 sequence (P43220 24-463): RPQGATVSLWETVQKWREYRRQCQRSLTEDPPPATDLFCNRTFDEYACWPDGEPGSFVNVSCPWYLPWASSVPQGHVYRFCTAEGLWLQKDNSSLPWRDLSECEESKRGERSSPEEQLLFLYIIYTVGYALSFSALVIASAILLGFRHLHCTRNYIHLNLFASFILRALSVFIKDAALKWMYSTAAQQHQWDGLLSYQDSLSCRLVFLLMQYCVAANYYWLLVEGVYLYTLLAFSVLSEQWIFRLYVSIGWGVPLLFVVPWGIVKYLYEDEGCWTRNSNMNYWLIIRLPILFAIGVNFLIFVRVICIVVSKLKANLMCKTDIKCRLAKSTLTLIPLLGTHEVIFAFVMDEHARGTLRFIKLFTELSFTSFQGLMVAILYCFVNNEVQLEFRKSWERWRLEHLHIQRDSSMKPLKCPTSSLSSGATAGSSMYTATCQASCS
Description: as §1, §2

[6] = Dynamic light scattering (DLS), hydrodynamic radius as surrogate for interaction parameter kD; assay type: physicochemical; conditions: for Delta Rh [nm] = Rh5 − Rh1: DLS buffer system A pH 4.5; for Rh1 [nm] c= 1 mg/ml / Rh5 [nm] c = 5 mg/ml: hydrodynamic radius, DLS buffer system A pH 4.5, DLS method C, 25° C.
Description: For every peptide solution, the hydrodynamic radius Rh and the diffusion constant D (related via the Stokes-Einstein equation) were determined as an average over triplicates. Both parameters were determined at different concentrations (e.g., Rh1 and D1: 1 mg/ml and Rh5 and D5: 5 mg/ml) in the same buffer system. The difference of these parameters between low and high peptide concentration is a surrogate for the DLS interaction parameter kD. Rh5<Rh1 or D5>D1 correspond to kD>0 and therefore to repulsive inter-particle interactions that result in improved physical (or colloidal) stability.
DLS buffer system A) 25 mM acetate buffer pH4.5, 3 mg/mL L-Methionine, 2.7 mg/mL m-cresol, 18 mg/mL Glycerol 85%
DLS Method C: DLS measurements were performed on a DynaPro Plate Reader II (Wyatt Technology, Santa Barbara, Calif., US) and using one of the following black, low volume, and non-treated plates: polystyrene 384 assay plate with clear bottom (Corning, N.Y., US), polystyrene 96 assay plate with clear bottom (Corning, N.Y., US), cyclo olefin polymer (COP) 384 assay plate with clear bottom (Aurora, Mont., US), or polystyrene 384 assay plate with clear bottom (Greiner Bio-One, Germany). The data were processed with the Dynamics software provided by Wyatt Technology. Parameters of the particle size distribution were determined with non-negatively constrained least squares (NNLS) methods using DynaLS algorithms. Measurements were taken at 25° C. with an 830 nm laser light source at an angle of 158°.
The hydrodynamic radius radius Rh of peptide samples was determined at different peptide concentrations (1 mg/ml and 5 mg/ml) in DLS buffer system A using DLS method C as described in Methods as surrogate for the DLS interaction parameter kD.

Row | EC50 [1] | Chemical stability [relative purity loss 28 days 40° C.] (%) at pH 4.5 [2] | solubility at 1 h [3] | Lag time before increase [4] | EC50 [5] | Delta Rh [nm] = Rh5 − Rh1 [6] | Rh1 [nm] c= 1 mg/ml [6] | Rh5 [nm] c = 5 mg/ml [6] | Compound
1 | 22 pM | 5.4% | > 9300 µg/mL | >45 h | – | – | – | – | CCCCCCCCCCCCCCCC(=O)N[C@@H](CCC(=O)N[C@@H](CCC(=O)NCCCC[C@H](NC(=O)[C@H](CC(C)C)NC(=O)[C@H](CCCCN)NC(=O)[C@H](CO)NC(=O)[C@H](CC(C)C)NC(=O)[C@H](CC(=O)O)NC(=O)[C@H](CO)NC(=O)[C@@H](NC(=O)[C@H](Cc1ccccc1)NC(=O)[C@@H](NC(=O)CNC(=O)[C@H](CCC(N)=O)NC(=O)C(C)(C)NC(=O)[C@@H](N)Cc1c[nH]cn1)[C@@H](C)O)[C@@H](C)O)C(=O)N[C@@H](CCC(=O)O)C(=O)N[C@@H](CCCCN)C(=O)N[C@@H](CCC(N)=O)C(=O)N[C@@H](CCCNC(=N)N)C(=O)N[C@@H](CCC(N)=O)C(=O)NC(C)(C)C(=O)N[C@@H](CCC(=O)O)C(=O)N[C@@H](Cc1ccccc1)C(=O)N[C@H](C(=O)N[C@@H](CCC(=O)O)C(=O)N[C@@H](Cc1c[nH]c2ccccc12)C(=O)N[C@@H](CC(C)C)C(=O)N[C@@H](CCCCN)C(=O)N[C@@H](C)C(=O)NCC(=O)NCC(=O)N[C@@H](Cc1c[nH]cn1)C(=O)N1CCC[C@H]1C(=O)N[C@@H](CO)C(=O)NC(C)(C)C(=O)N[C@@H](CCCCN)C(=O)N1CCC[C@H]1C(=O)N1CCC[C@H]1C(=O)N1CCC[C@H]1C(=O)N[C@@H](CCCCN)C(N)=O)[C@@H](C)CC)C(=O)O)C(=O)O [SEQ ID NO: 12, H-Aib-Q-G-T-F-T-S-D-L-S-K-L-K[gGlu-gGlu-Palm]-E-K-Q-R-Q-Aib-E-F-I-E-W-L-K-A-G-G-H-P-S-Aib-K-P-P-P-K-NH2]
2 | – | 5.5% | > 9300 µg/mL | – | 5.7 pM | −0.2 nm | 2.7 nm | 2.4 nm | CCCCCCCCCCCCCCCC(=O)N[C@@H](CCC(=O)NCCCC[C@H](NC(=O)[C@H](CC(C)C)NC(=O)[C@H](CCCCN)NC(=O)[C@H](CO)NC(=O)[C@H](CC(C)C)NC(=O)[C@H](CC(=O)O)NC(=O)[C@H](CO)NC(=O)[C@@H](NC(=O)[C@H](Cc1ccccc1)NC(=O)[C@@H](NC(=O)CNC(=O)[C@H](CCC(N)=O)NC(=O)C(C)(C)NC(=O)[C@@H](N)Cc1c[nH]cn1)[C@@H](C)O)[C@@H](C)O)C(=O)N[C@@H](CCC(=O)O)C(=O)N[C@@H](CCCCN)C(=O)N[C@@H](CCC(N)=O)C(=O)N[C@@H](CCCNC(=N)N)C(=O)N[C@@H](CCC(N)=O)C(=O)NC(C)(C)C(=O)N[C@@H](CCC(=O)O)C(=O)N[C@@H](Cc1ccccc1)C(=O)N[C@H](C(=O)N[C@@H](CCC(=O)O)C(=O)N[C@@H](Cc1c[nH]c2ccccc12)C(=O)N[C@@H](CC(C)C)C(=O)N[C@@H](CCCCN)C(=O)N[C@@H](C)C(=O)NCC(=O)NCC(=O)N1CCC[C@H]1C(=O)N1CCC[C@H]1C(=O)N[C@@H](CO)C(=O)NC(C)(C)C(=O)N[C@@H](CCCCN)C(=O)N1CCC[C@H]1C(=O)N1CCC[C@H]1C(=O)N1CCC[C@H]1C(=O)N[C@@H](CCCCN)C(N)=O)[C@@H](C)CC)C(=O)O [SEQ ID NO: 14, H-Aib-Q-G-T-F-T-S-D-L-S-K-L-K[gGlu-Palm]-E-K-Q-R-Q-Aib-E-F-I-E-W-L-K-A-G-G-P-P-S-Aib-K-P-P-P-K-NH2]
3 | – | 5.6% | > 8900 µg/mL | – | 5.7 pM | −0.2 nm | 2.7 nm | 2.6 nm | CCCCCCCCCCCCCCCCCC(=O)N[C@@H](CCC(=O)NCCCC[C@H](NC(=O)[C@H](CC(C)C)NC(=O)[C@H](CCCCN)NC(=O)[C@H](CO)NC(=O)[C@H](CC(C)C)NC(=O)[C@H](CC(=O)O)NC(=O)[C@H](CO)NC(=O)[C@@H](NC(=O)[C@H](Cc1ccccc1)NC(=O)[C@@H](NC(=O)CNC(=O)[C@H](CCC(N)=O)NC(=O)C(C)(C)NC(=O)[C@@H](N)Cc1c[nH]cn1)[C@@H](C)O)[C@@H](C)O)C(=O)N[C@@H](CCC(=O)O)C(=O)N[C@@H](CCCCN)C(=O)N[C@@H](CCC(N)=O)C(=O)N[C@@H](CCCNC(=N)N)C(=O)N[C@@H](CCC(N)=O)C(=O)NC(C)(C)C(=O)N[C@@H](CCC(=O)O)C(=O)N[C@@H](Cc1ccccc1)C(=O)N[C@H](C(=O)N[C@@H](CCC(=O)O)C(=O)N[C@@H](Cc1c[nH]c2ccccc12)C(=O)N[C@@H](CC(C)C)C(=O)N[C@@H](CCCCN)C(=O)N[C@@H](C)C(=O)NCC(=O)NCC(=O)N1CCC[C@H]1C(=O)N1CCC[C@H]1C(=O)N[C@@H](CO)C(=O)NC(C)(C)C(=O)N[C@@H](CCCCN)C(=O)N1CCC[C@H]1C(=O)N1CCC[C@H]1C(=O)N1CCC[C@H]1C(=O)N[C@@H](CCCCN)C(N)=O)[C@@H](C)CC)C(=O)O [SEQ ID NO: 15, H-Aib-Q-G-T-F-T-S-D-L-S-K-L-K[gGlu-Stea]-E-K-Q-R-Q-Aib-E-F-I-E-W-L-K-A-G-G-P-P-S-Aib-K-P-P-P-K-NH2] (H-H[Aib]QGTFTSDLSKLK([γGlu-Stearoyl])EKQRQ[Aib]EFIEWLKAGGPPS[Aib]KPPPK-NH2)
4 | 22 pM | 6.4% | > 9200 µg/mL | >45 h | – | −0.5 nm | 2.9 nm | 2.4 nm | CCCCCCCCCCCCCCCC(=O)NCCOCCOCC(=O)N[C@@H](CCC(=O)N[C@@H](CCC(=O)NCCCC[C@H](NC(=O)[C@H](CC(C)C)NC(=O)[C@H](CCCCN)NC(=O)[C@H](CO)NC(=O)[C@H](CC(C)C)NC(=O)[C@H](CC(=O)O)NC(=O)[C@H](CO)NC(=O)[C@@H](NC(=O)[C@H](Cc1ccccc1)NC(=O)[C@@H](NC(=O)CNC(=O)[C@H](CCC(N)=O)NC(=O)C(C)(C)NC(=O)[C@@H](N)Cc1c[nH]cn1)[C@@H](C)O)[C@@H](C)O)C(=O)N[C@@H](CCC(=O)O)C(=O)N[C@@H](CCCCN)C(=O)N[C@@H](CCC(N)=O)C(=O)N[C@@H](CCCNC(=N)N)C(=O)N[C@@H](CCC(N)=O)C(=O)NC(C)(C)C(=O)N[C@@H](CCC(=O)O)C(=O)N[C@@H](Cc1ccccc1)C(=O)N[C@H](C(=O)N[C@@H](CCC(=O)O)C(=O)N[C@@H](Cc1c[nH]c2ccccc12)C(=O)N[C@@H](CC(C)C)C(=O)N[C@@H](CCCCN)C(=O)N[C@@H](C)C(=O)N[C@H](C)C(=O)NCC(=O)N[C@@H](Cc1c[nH]cn1)C(=O)N1CCC[C@H]1C(=O)N[C@@H](CO)C(=O)NC(C)(C)C(=O)N[C@@H](CCCCN)C(=O)N1CCC[C@H]1C(=O)N1CCC[C@H]1C(=O)N1CCC[C@H]1C(=O)N[C@@H](CCCCN)C(N)=O)[C@@H](C)CC)C(=O)O)C(=O)O [SEQ ID NO: 17, H-Aib-Q-G-T-F-T-S-D-L-S-K-L-K[gGlu-gGlu-AEEA-Palm]-E-K-Q-R-Q-Aib-E-F-I-E-W-L-K-A-dAla-G-H-P-S-Aib-K-P-P-P-K-NH2] (H-H[Aib]QGTFTSDLSKLK([γGlu-γGlu-AEEA-Palmitoyl])EKQRQ[Aib]EFIEWLKA[dA]GHPS[Aib]KPPPK-NH2)
